Legend:
[1] = test system: SMN2 minigene mRNA (SMN2-A minigene) in HEK293H cells; assay: SMN2 minigene mRNA splicing RT-qPCR assay in cultured cells; assay type: cell-based, human; settings: Homo sapiens, HEK293-H; concentration increasing full length SMN2 mRNA 1.5-fold relative to vehicle-treated cells; HEK293H cells with SMN2-A minigene, 24 hours, 7-point concentration data; read-out: EC1.5x for production of full length SMN2 mRNA
How it was run: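 HEK293H cells stably carrying SMN2-A minigene treated with compounds (7-point, 3.16-fold dilutions, duplicates) for 24 h at 37 °C. Full-length exon 7-containing minigene mRNA measured by multiplex RT-qPCR with GAPDH, normalized and expressed relative to vehicle (modified ΔΔCt); EC1.5× is concentration giving 1.5-fold increase.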

[2] = test system: Smn protein in SMA patient fibroblast cells (GM03813); assay: Smn protein assay in cultured cells (SMN HTRF); assay type: cell-based, human; settings: SMA patient fibroblast cells, 48 hours; for EC1.5x for Smn protein expression: 7-point concentration curve, SMN HTRF, concentration producing 1.5 times Smn protein vs DMSO vehicle control; for maximum fold (Fold) increase of Smn protein: 7-point concentration data, fold relative to vehicle control
How it was run: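 SMA patient fibroblasts (5,000/well, DMEM-10% FBS) treated 48 h at 37° C with 7-point, 3.16-fold compound series in triplicate; lysates read by SMN HTRF (665/620 nm ratio). Fold Smn increase over DMSO vehicle derived; EC1.5× is concentration giving 1.5-fold Smn, with maximum fold also reported.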

| SMILES | EC (1.5-fold increase) [1] | EC1.5x for Smn protein expression [2] | maximum fold (Fold) increase of Smn protein [2] | melting point |
| --- | --- | --- | --- | --- |
| COc1ccc(-c2cc(=O)n3cc(N4CCN(C)CC4)cc(C)c3n2)cc1OC [Compound 344, 2-(3,4-dimethoxyphenyl)-9-methyl-7-(4-methylpiperazin-1-yl)-4H-pyrido[1,2-a]pyrimidin-4-one] | 0.1 to 0.3 µM | *** (an EC1.5× between >0.3 μM and ≤1 μM is indicated by three stars (***)) | ***** (a fold increase >1.65 is indicated by five stars (*****)) | 191 to 198 °C |
| CCc1cc(N2CCC(N(C)C)CC2)cn2c(=O)cc(-c3ccc(OC)c(OC)c3)nc12 [Compound 345, 2-(3,4-dimethoxyphenyl)-7-[4-(dimethylamino)piperidin-1-yl]-9-ethyl-4H-pyrido[1,2-a]pyrimidin-4-one] | < 0.1 µM | – | *** (a fold increase between >1.35 and ≤1.5 is indicated by three stars (***)) | 146 to 150 °C |
| COc1ccc(-c2cc(=O)n3cc(C4=CCN(CCO)CC4)cc(C)c3n2)cc1OC [Compound 346, 2-(3,4-dimethoxyphenyl)-7-[1-(2-hydroxyethyl)-1,2,3,6-tetrahydropyridin-4-yl]-9-methyl-4H-pyrido[1,2-a]pyrimidin-4-one] | < 0.1 µM | **** (an EC1.5x≤0.3 μM is indicated by four stars (****)) | **** (a fold increase between >1.5 and ≤1.65 is indicated by four stars (****)) | 169 to 179 °C |
| Cc1nc2cc(-c3cc(=O)n4cc(N5CCC(N(C)C)CC5)ccc4n3)ccc2s1 [Compound 347, 7-[4-(dimethylamino)piperidin-1-yl]-2-(2-methyl-1,3-benzothiazol-5-yl)-4H-pyrido[1,2-a]pyrimidin-4-one] | < 0.1 µM | – | *** (a fold increase between >1.35 and ≤1.5 is indicated by three stars (***)) | 218 to 220 °C |
| Cc1nc2cc(-c3cc(=O)n4cc(N5CCC(N)CC5)ccc4n3)ccc2s1 [Compound 348, 7-(4-aminopiperidin-1-yl)-2-(2-methyl-1,3-benzothiazol-5-yl)-4H-pyrido[1,2-a]pyrimidin-4-one] | 0.1 to 0.3 µM | – | ** (a fold increase between >1.2 and ≤1.35 is indicated by two stars (**)) | 190 to 192 °C |
| Cc1cn2nc(-c3cc(=O)n4cc(C5=CCN(C)CC5)ccc4n3)cc2c(C)n1 [Compound 350, 2-(4,6-dimethylpyrazolo[1,5-a]pyrazin-2-yl)-7-(1-methyl-1,2,3,6-tetrahydropyridin-4-yl)-4H-pyrido[1,2-a]pyrimidin-4-one] | < 0.1 µM | **** (an EC1.5x≤0.3 μM is indicated by four stars (****)) | ***** (a fold increase >1.65 is indicated by five stars (*****)) | 193 to 197 °C |
| CCN1CC=C(c2ccc3nc(-c4cc5c(C)nc(C)cn5n4)cc(=O)n3c2)CC1 [Compound 351, 2-(4,6-dimethylpyrazolo[1,5-a]pyrazin-2-yl)-7-(1-ethyl-1,2,3,6-tetrahydropyridin-4-yl)-4H-pyrido[1,2-a]pyrimidin-4-one] | < 0.1 µM | **** (an EC1.5x≤0.3 μM is indicated by four stars (****)) | ***** (a fold increase >1.65 is indicated by five stars (*****)) | 202 to 204 °C |
| CCCN1CC=C(c2ccc3nc(-c4cc5c(C)nc(C)cn5n4)cc(=O)n3c2)CC1 [Compound 352, 2-(4,6-dimethylpyrazolo[1,5-a]pyrazin-2-yl)-7-(1-propyl-1,2,3,6-tetrahydropyridin-4-yl)-4H-pyrido[1,2-a]pyrimidin-4-one] | < 0.1 µM | **** (an EC1.5x≤0.3 μM is indicated by four stars (****)) | **** (a fold increase between >1.5 and ≤1.65 is indicated by four stars (****)) | 191 to 193 °C |
| Cc1cn2nc(-c3cc(=O)n4cc(C5=CCN(C(C)C)CC5)ccc4n3)cc2c(C)n1 [Compound 355, 2-(4,6-dimethylpyrazolo[1,5-a]pyrazin-2-yl)-7-[1-(propan-2-yl)-1,2,3,6-tetrahydropyridin-4-yl]-4H-pyrido[1,2-a]pyrimidin-4-one] | < 0.1 µM | *** (an EC1.5× between >0.3 μM and ≤1 μM is indicated by three stars (***)) | **** (a fold increase between >1.5 and ≤1.65 is indicated by four stars (****)) | 186 to 189 °C |
| Cc1cn2nc(-c3cc(=O)n4cc(C5=CCN(C6CCC6)CC5)ccc4n3)cc2c(C)n1 [Compound 356, 7-(1-cyclobutyl-1,2,3,6-tetrahydropyridin-4-yl)-2-(4,6-dimethylpyrazolo[1,5-a]pyrazin-2-yl)-4H-pyrido[1,2-a]pyrimidin-4-one] | < 0.1 µM | *** (an EC1.5× between >0.3 μM and ≤1 μM is indicated by three stars (***)) | **** (a fold increase between >1.5 and ≤1.65 is indicated by four stars (****)) | 191 to 193 °C |
| COc1ccc(-c2cc(=O)n3cc(N4CCNCC4)c(C)cc3n2)cc1OC [Compound 360, 2-(3,4-dimethoxyphenyl)-8-methyl-7-(piperazin-1-yl)-4H-pyrido[1,2-a]pyrimidin-4-one] | 1 to 3 µM | – | * (A maximum fold increase of ≤1.2 is indicated by one star (*)) | 161 to 169 °C |
| COc1ccc(-c2cc(=O)n3cc(C4=CCN(C5CCC5)CC4)ccc3n2)cc1OC [Compound 362, 7-(1-cyclobutyl-1,2,3,6-tetrahydropyridin-4-yl)-2-(3,4-dimethoxyphenyl)-4H-pyrido[1,2-a]pyrimidin-4-one] | 0.3 to 1 µM | – | *** (a fold increase between >1.35 and ≤1.5 is indicated by three stars (***)) | 152 to 154 °C |
| COc1ccc(-c2cc(=O)n3cc(C4=CCN(C(C)C)CC4)ccc3n2)cc1OC [Compound 363, 2-(3,4-dimethoxyphenyl)-7-[1-(propan-2-yl)-1,2,3,6-tetrahydropyridin-4-yl]-4H-pyrido[1,2-a]pyrimidin-4-one] | 0.3 to 1 µM | – | ** (a fold increase between >1.2 and ≤1.35 is indicated by two stars (**)) | 116 to 118 °C |
| COc1ccc(-c2cc(=O)n3cc(C4=CCN(C5COC5)CC4)ccc3n2)cc1OC [Compound 364, 2-(3,4-dimethoxyphenyl)-7-[1-(oxetan-3-yl)-1,2,3,6-tetrahydropyridin-4-yl]-4H-pyrido[1,2-a]pyrimidin-4-one] | 1 to 3 µM | – | * (A maximum fold increase of ≤1.2 is indicated by one star (*)) | 178 to 180 °C |
| CCCN1CC=C(c2ccc3nc(-c4ccc(OC)c(OC)c4)cc(=O)n3c2)CC1 [Compound 365, 2-(3,4-dimethoxyphenyl)-7-(1-propyl-1,2,3,6-tetrahydropyridin-4-yl)-4H-pyrido[1,2-a]pyrimidin-4-one] | 0.1 to 0.3 µM | – | *** (a fold increase between >1.35 and ≤1.5 is indicated by three stars (***)) | 158 to 160 °C |
| CNC1CC=C(c2ccc3nc(-c4ccc(OC)c(OC)c4)cc(=O)n3c2)CC1 (centres unmarked) [Compound 366, 2-(3,4-dimethoxyphenyl)-7-[4-(methylamino)cyclohex-1-en-1-yl]-4H-pyrido[1,2-a]pyrimidin-4-one] | < 0.1 µM | **** (an EC1.5x≤0.3 μM is indicated by four stars (****)) | **** (a fold increase between >1.5 and ≤1.65 is indicated by four stars (****)) | 232 to 235 °C |
| COc1ccc(-c2cc(=O)n3cc(C4=CCC(N(C)C)CC4)ccc3n2)cc1OC (centres unmarked) [Compound 367, 2-(3,4-dimethoxyphenyl)-7-[4-(dimethylamino)cyclohex-1-en-1-yl]-4H-pyrido[1,2-a]pyrimidin-4-one] | < 0.1 µM | * (An EC1.5× for Smn protein expression between >3 μM and ≤10 μM is indicated by one star (*)) | *** (a fold increase between >1.35 and ≤1.5 is indicated by three stars (***)) | 162 to 164 °C |
| CCN(C)C1CC=C(c2ccc3nc(-c4ccc(OC)c(OC)c4)cc(=O)n3c2)CC1 (centres unmarked) [Compound 368, 2-(3,4-dimethoxyphenyl)-7-{4-[ethyl(methyl)amino]cyclohex-1-en-1-yl}-4H-pyrido[1,2-a]pyrimidin-4-one] | < 0.1 µM | *** (an EC1.5× between >0.3 μM and ≤1 μM is indicated by three stars (***)) | **** (a fold increase between >1.5 and ≤1.65 is indicated by four stars (****)) | 132 to 134 °C |
| CCCN(C)C1CC=C(c2ccc3nc(-c4ccc(OC)c(OC)c4)cc(=O)n3c2)CC1 (centres unmarked) [Compound 369, 2-(3,4-dimethoxyphenyl)-7-{4-[methyl(propyl)amino]cyclohex-1-en-1-yl}-4H-pyrido[1,2-a]pyrimidin-4-one] | < 0.1 µM | ** (an EC1.5× between >1 μM and ≤3 μM is indicated by two stars (**)) | *** (a fold increase between >1.35 and ≤1.5 is indicated by three stars (***)) | 116 to 118 °C |

Reference: patent US11753407B2, “Compounds for treating spinal muscular atrophy” (PTC Therapeutics, Inc., priority 2012, dated 2023)
